Read-outs that look alike come from different tables or passages of the source. A value given as a limit tells only on which side of the number the result lay.

The IC50 is the concentration needed to halve the response being measured.

This assay concerns the target T1, IKK-2 (Homo sapiens, UniProt O14920, S177E/S181E).
T1 construct: His6
T1 sequence (O14920 1-756 S177E/S181E): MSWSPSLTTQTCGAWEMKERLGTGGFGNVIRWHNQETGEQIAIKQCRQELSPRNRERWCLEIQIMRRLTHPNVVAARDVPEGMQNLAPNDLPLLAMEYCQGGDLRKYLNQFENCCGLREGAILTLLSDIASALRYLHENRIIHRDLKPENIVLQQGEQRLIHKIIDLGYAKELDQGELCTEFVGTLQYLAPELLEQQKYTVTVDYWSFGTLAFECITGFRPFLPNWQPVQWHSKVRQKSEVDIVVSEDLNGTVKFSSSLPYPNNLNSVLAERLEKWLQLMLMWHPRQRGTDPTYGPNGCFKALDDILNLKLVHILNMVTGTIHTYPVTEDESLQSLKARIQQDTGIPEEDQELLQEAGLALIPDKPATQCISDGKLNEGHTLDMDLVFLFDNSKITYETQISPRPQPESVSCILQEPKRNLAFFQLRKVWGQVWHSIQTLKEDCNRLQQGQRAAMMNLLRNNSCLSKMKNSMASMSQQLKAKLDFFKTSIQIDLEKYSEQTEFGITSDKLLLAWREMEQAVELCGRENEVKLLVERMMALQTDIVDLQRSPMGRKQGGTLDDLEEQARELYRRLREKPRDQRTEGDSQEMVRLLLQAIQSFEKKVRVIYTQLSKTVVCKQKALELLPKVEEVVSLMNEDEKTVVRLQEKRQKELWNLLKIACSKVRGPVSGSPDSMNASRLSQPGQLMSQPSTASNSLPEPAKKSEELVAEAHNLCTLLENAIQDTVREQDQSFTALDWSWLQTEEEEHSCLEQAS
The assay can be described thus: IKK-2 Enzyme Assay. In kind it is biochemical. As for the experimental part: The mixture is preincubated for 15 minutes at room temperature. […] After 30 minutes the precipitate is harvested onto a filter plate to which 50 μl of scintillation fluid is added and then quantified by a scintillation counter.

Setting [1] is: preferred compounds, 1 μM or less, read-out: IC50 value in the IKK-2 Enzyme Assay.
The mark [2] stands for this setting: more preferred compounds, 500 nM or less, read-out: IC50 value in the IKK-2 Enzyme Assay.

Regarding `NC(=O)c1ccc(Nc2nccc(-c3ccc(Cl)cc3)n2)cc1` [Compound 1, 4-{[4-(4-chlorophenyl)pyrimidin-2-yl]amino}benzamide], the half-maximal inhibitory concentration (IC50) under setting [1] is no more than 1000 nM. `NC(=O)c1ccc(Nc2nccc(-c3ccc(S(=O)(=O)c4ccncc4)cc3)n2)cc1` [Compound 3-8]: the half-maximal inhibitory concentration (IC50) reads like this: under setting [2], no more than 500 nM; under setting [1], no more than 1000 nM.

Turning to `NC(=O)c1ccc(Nc2nccc(-c3ccc(S(=O)(=O)c4ccccn4)cc3)n2)cc1` [Compound 3-9], the 50% inhibitory concentration (IC50) under setting [1] was no more than 1000 nM. On the same count and under the same terms, the same measure for `NC(=O)c1ccc(Nc2nccc(-c3ccc(S(=O)(=O)c4cccnc4)cc3)n2)cc1` [Compound 3-13]: no more than 1000 nM.

`NC(=O)c1ccc(Nc2nccc(-c3ccc(SCCCO)cc3)n2)cc1` [Compound 3-14]: the IC50 reads like this: under setting [2], no more than 500 nM; under setting [1], no more than 1000 nM. Regarding `NC(=O)c1ccc(Nc2nccc(-c3ccc(S(=O)(=O)CCCO)cc3)n2)cc1` [Compound 3-15], the concentration for half-maximal inhibition (IC50) under setting [1] was no more than 1000 nM. On to `NC(=O)c1ccc(Nc2nccc(-c3ccc(S(=O)(=O)c4ccccc4)cc3)n2)cc1` [Compound 3-21], for which the half-inhibitory concentration (IC50) runs as follows: under setting [2], no more than 500 nM; under setting [1], no more than 1000 nM. As to `NC(=O)c1ccc(Nc2nccc(-c3ccc4ccccc4c3)n2)cc1` [Compound 3-34], under setting [1], the IC50 is no more than 1000 nM. Take `CN(C)C(=O)c1ccc(Nc2nccc(-c3ccc(Cl)cc3)n2)cc1` [Compound 17-2]: the IC50 under setting [2] is no more than 500 nM and the half-inhibitory concentration (IC50) under setting [1] was no more than 1000 nM. Regarding `CNC(=O)c1ccc(Nc2nccc(-c3ccc(Cl)cc3)n2)cc1` [Compound 17-3], the IC50 under setting [1] is no more than 1000 nM. For the compound `CN(C)C(=O)c1ccc(Nc2nccc(-c3ccc(Br)cc3)n2)cc1` [Compound 17-18], the IC50 was no more than 500 nM under setting [2] and no more than 1000 nM under setting [1]. In the case of `O=C(c1ccc(Nc2nccc(-c3ccc(Cl)cc3)n2)cc1)N1CCC(O)CC1` [Compound 17-20], the IC50 was no more than 500 nM under setting [2] and no more than 1000 nM under setting [1]. Take `O=C(NCCCn1ccnc1)c1ccc(Nc2nccc(-c3ccc(Cl)cc3)n2)cc1` [Compound 17-21]: under setting [1], the IC50 was no more than 1000 nM. Same read-out and setting: the same measure for `CC(=O)NCCNC(=O)c1ccc(Nc2nccc(-c3ccc(Cl)cc3)n2)cc1` [Compound 17-22]: no more than 1000 nM; for `O=C(NCCCN1CCCCC1)c1ccc(Nc2nccc(-c3ccc(Cl)cc3)n2)cc1` [Compound 17-23]: no more than 1000 nM. Same read-out and setting: the same measure for `O=C(NCCCO)c1ccc(Nc2nccc(-c3ccc(Cl)cc3)n2)cc1` [Compound 17-25]: no more than 1000 nM. Regarding `O=C(c1ccc(Nc2nccc(-c3ccc(Cl)cc3)n2)cc1)N1CCC[C@@H]1CO` [Compound 17-27], the IC50 is no more than 500 nM under setting [2] and no more than 1000 nM under setting [1]. The like results for `O=C(c1ccc(Nc2nccc(-c3ccc(Cl)cc3)n2)cc1)N1CCC(O)C1` (stereo not drawn) [Compound 17-28] were, in that order, no more than 500 nM and no more than 1000 nM. The like results for `CC(=O)N1CCN(C(=O)c2ccc(Nc3nccc(-c4ccc(S(=O)(=O)c5ccncc5)cc4)n3)cc2)CC1` [Compound 17-29] were, in that order, no more than 500 nM and no more than 1000 nM. The like results for `O=C(c1ccc(Nc2nccc(-c3ccc(S(=O)(=O)c4ccncc4)cc3)n2)cc1)N1CCN(C(=O)c2ccco2)CC1` [Compound 17-30] were, in that order, no more than 500 nM and no more than 1000 nM. As to `CN(C)C(=O)c1ccc(Nc2nccc(-c3ccc(SCCCO)cc3)n2)cc1` [Compound 17-31], the concentration for half-maximal inhibition (IC50) is no more than 500 nM under setting [2] and no more than 1000 nM under setting [1]. For `CC(C)NC(=O)CN1CCN(C(=O)c2ccc(Nc3nccc(-c4ccc(SCCCO)cc4)n3)cc2)CC1` [Compound 17-32], in that order: no more than 500 nM and no more than 1000 nM. For `CC(=O)N1CCN(C(=O)c2ccc(Nc3nccc(-c4ccc(SCCCO)cc4)n3)cc2)CC1` [Compound 17-33], in that order: no more than 500 nM and no more than 1000 nM. The like results for `O=C(c1ccc(Nc2nccc(-c3ccc(SCCCO)cc3)n2)cc1)N1CCN(C(=O)c2ccco2)CC1` [Compound 17-34] were, in that order, no more than 500 nM and no more than 1000 nM.

`CCN1CCN(C(=O)c2ccc(Nc3nccc(-c4ccc(Cl)cc4)n3)cc2)CC1` [Compound 17-35]: the IC50 under setting [2] is no more than 500 nM and the IC50 under setting [1] is no more than 1000 nM. For `CC(C)(C)OC(=O)N1CCN(C(=O)c2ccc(Nc3nccc(-c4ccc(Cl)cc4)n3)cc2)CC1` [Compound 17-36], in that order: no more than 500 nM and no more than 1000 nM.

On to `CCC(=O)N1CCN(C(=O)c2ccc(Nc3nccc(-c4ccc(Cl)cc4)n3)cc2)CC1` [Compound 17-37], for which the IC50 under setting [2] is no more than 500 nM. For the compound `O=C(NCCCN1CCCC1=O)c1ccc(Nc2nccc(-c3ccc(Cl)cc3)n2)cc1` [Compound 17-54], under setting [1], the IC50 was no more than 1000 nM. With `O=C(c1ccc(Nc2nccc(-c3ccc(Cl)cc3)n2)cc1)N1CCCCC1` [Compound 17-71], the IC50 under setting [1] was no more than 1000 nM. On to `COCCCNC(=O)c1ccc(Nc2nccc(-c3ccc(Cl)cc3)n2)cc1` [Compound 17-72], for which the 50% inhibitory concentration (IC50) under setting [1] was no more than 1000 nM. On to `O=C(NCCCN1CCOCC1)c1ccc(Nc2nccc(-c3ccc(Cl)cc3)n2)cc1` [Compound 17-86], for which the half-maximal inhibitory concentration (IC50) under setting [2] is no more than 500 nM and the half-inhibitory concentration (IC50) under setting [1] was no more than 1000 nM.

For `COC(=O)CNC(=O)c1ccc(Nc2nccc(-c3ccc(Cl)cc3)n2)cc1` [Compound 17-91], the IC50 is no more than 500 nM under setting [2] and no more than 1000 nM under setting [1].

For the compound `O=C(NCCc1ccccn1)c1ccc(Nc2nccc(-c3ccc(Cl)cc3)n2)cc1` [Compound 17-118], the IC50 under setting [1] is no more than 1000 nM. Consider `CN1CCN(C(=O)c2ccc(Nc3nccc(-c4ccc(Cl)cc4)n3)cc2)CC1` [Compound 17-127], for which the IC50 is no more than 500 nM under setting [2] and no more than 1000 nM under setting [1]. As for `O=C(c1ccc(Nc2nccc(-c3ccc(Cl)cc3)n2)cc1)N1CCN(Cc2ccc3c(c2)OCO3)CC1` [Compound 17-128], the 50% inhibitory concentration (IC50) under setting [1] is no more than 1000 nM. For `CC(=O)N1CCN(C(=O)c2ccc(Nc3nccc(-c4ccc(Cl)cc4)n3)cc2)CC1` [Compound 17-129], the IC50 was no more than 500 nM under setting [2] and no more than 1000 nM under setting [1]. The like results for `O=CN1CCN(C(=O)c2ccc(Nc3nccc(-c4ccc(Cl)cc4)n3)cc2)CC1` [Compound 17-131] were, in that order, no more than 500 nM and no more than 1000 nM. For the compound `CCCNC(=O)c1ccc(Nc2nccc(-c3ccc(Cl)cc3)n2)cc1` [Compound 17-132], the 50% inhibitory concentration (IC50) under setting [1] is no more than 1000 nM. As for `O=C(c1ccc(Nc2nccc(-c3ccc(Cl)cc3)n2)cc1)N1CCOCC1` [Compound 17-133], the IC50 by setting is: under setting [2], no more than 500 nM; under setting [1], no more than 1000 nM. With `O=C(c1ccc(Nc2nccc(-c3ccc(Cl)cc3)n2)cc1)N1CCN(c2ccc([N+](=O)[O-])cc2)CC1` [Compound 17-136], the IC50 under setting [1] is no more than 1000 nM. On to `CCOC(=O)N1CCN(C(=O)c2ccc(Nc3nccc(-c4ccc(Cl)cc4)n3)cc2)CC1` [Compound 17-137], for which the half-inhibitory concentration (IC50) runs as follows: under setting [2], no more than 500 nM; under setting [1], no more than 1000 nM. As for `O=C(c1ccc(Nc2nccc(-c3ccc(Cl)cc3)n2)cc1)N1CCC2(CC1)OCCO2` [Compound 17-139], the concentration for half-maximal inhibition (IC50) is, setting by setting: (IC50 value in the IKK-2 Enzyme Assay, more preferred compounds, 500 nM or less) no more than 500 nM; (IC50 value in the IKK-2 Enzyme Assay, preferred compounds, 1 μM or less) no more than 1000 nM.

For `CC(C)NC(=O)CN1CCN(C(=O)c2ccc(Nc3nccc(-c4ccc(Cl)cc4)n3)cc2)CC1` [Compound 17-141], the IC50 under setting [2] was no more than 500 nM and the IC50 under setting [1] was no more than 1000 nM. As to `O=C(NCCN1CCOCC1)c1ccc(Nc2nccc(-c3ccc(Cl)cc3)n2)cc1` [Compound 17-142], under setting [1], the IC50 is no more than 1000 nM. The same measure, in the same setting: in the case of `O=C(c1ccc(Nc2nccc(-c3ccc(Cl)cc3)n2)cc1)N1CC=CCC1` [Compound 17-144] it was no more than 1000 nM; in that of `CCN(Cc1ccncc1)C(=O)c1ccc(Nc2nccc(-c3ccc(Cl)cc3)n2)cc1` [Compound 17-147], no more than 1000 nM. `CN(C)CCN(Cc1ccccc1)C(=O)c1ccc(Nc2nccc(-c3ccc(Cl)cc3)n2)cc1` [Compound 17-150]: the 50% inhibitory concentration (IC50) by setting is: under setting [2], no more than 500 nM; under setting [1], no more than 1000 nM.

Regarding `CN(CCc1ccccn1)C(=O)c1ccc(Nc2nccc(-c3ccc(Cl)cc3)n2)cc1` [Compound 17-151], the half-inhibitory concentration (IC50) under setting [1] is no more than 1000 nM. Still for that read-out and setting: in the case of `CN1CCCC1CCNC(=O)c1ccc(Nc2nccc(-c3ccc(Cl)cc3)n2)cc1` (stereo not drawn) [Compound 17-152] it was no more than 1000 nM; in that of `CCN(CC)CCCNC(=O)c1ccc(Nc2nccc(-c3ccc(Cl)cc3)n2)cc1` [Compound 17-153], no more than 1000 nM.

For the compound `CN(C)CCCNC(=O)c1ccc(Nc2nccc(-c3ccc(Cl)cc3)n2)cc1` [Compound 17-154], the half-maximal inhibitory concentration (IC50) is, setting by setting: under setting [2], no more than 500 nM; under setting [1], no more than 1000 nM. Regarding `O=C(c1ccc(Nc2nccc(-c3ccc(Cl)cc3)n2)cc1)N1CCN(c2ccccc2)CC1` [Compound 17-158], under setting [1], the half-maximal inhibitory concentration (IC50) was no more than 1000 nM. `O=C(c1ccc(Nc2nccc(-c3ccc(Cl)cc3)n2)cc1)N1CCN(C(=O)c2ccco2)CC1` [Compound 17-159]: the IC50 under setting [2] was no more than 500 nM and the IC50 under setting [1] is no more than 1000 nM.

The values are drawn from patent publication US7442699B2, “Anilinopyrimidine derivatives as IKK inhibitors and compositions and methods related thereto” (Signal Pharmaceuticals, LLC, priority 2000, dated 2008).
